Measured values published in US20250213547A1, “METHODS OF TREATING NEUROLOGICAL DISEASES” (priority 2022, published 2025).
Read-outs that look alike come from different tables or passages of the source.

Assay: Healthy Japanese subjects, Part 2 (100, 200, 300 mg BID up-titration): PK of TAK-935 and M-I
Assay type: in vivo, human
Conditions: human, plasma, oral; for Vd/F: read-out: Vz/F; for half-life: read-out: t1/2z (terminal disposition phase half-life) (converted)
Protocol: This study consisted of 2 parts, and was a randomized, double-blind, placebo-controlled study to assess safety, tolerability, and PK and PD of TAK-935 when administered orally in healthy Japanese subjects.
TAK-935 or placebo was administered to the 9 subjects at the dose of 100 mg BID from Day 1 to Day 7, then 200 mg BID from Day 8 to Day 14, and finally 300 mg BID from Day 15 to Day 21, and safety, PK and PD were investigated. The planned dose levels of TAK-935 to be evaluated are outlined in Table 40a.
After the screening visit, eligible participants checked—in on Day-2. On Day 1, eligible participants were randomized 6:3 to TAK-935 or placebo in double-blinded fashion. No stratification variables were used for randomization. Study drug was administered every day by oral administration of multiple dosing with up-titration of TAK-935 to 9 subjects firstly at 100 mg BID from Day 1 to Day 7, then at 200 mg BID from Day 8 to Day 14, and finally at 300 mg BID from Day 15 to Day 21, successively. The subjects were discharged on Day 24. Intensive PK samplings were performed on Day 1, Day 7, Day 14 and Day 21.
Subjects received multiple oral doses of TAK-935 or placebo escalating from 100 mg BID, 200 mg BID, and then to 300 mg BID with 150 mL of water for 7 days per each dose level. For the morning dose, subjects were kept fasted for at least 8 hours before administration and up to 2 hours after administration. The evening dose was administered at any time between 8 hours and 12 hours after the morning dose, but prior to the evening meal except for Days 1, 7, 14, and 21. On Days 1, 7, 14, and 21, the evening dose was administered 12 hours after the morning dose and prior to the evening meal. • Identity of Study Drugs • Study drug refers to TAK-935 100 mg tablet and matching placebo. • Compound: Code name: TAK-935 • Dosage forms: TAK-935 100 mg tablets and matching placebo tablets were used in this study. The TAK-935 tablets and placebo tablets were yellow-red film-coated tablets for oral administration.
Blood samples for PK analysis of TAK-935 and its metabolites (M-I) were collected into blood collection tubes (vacutainer) containing the anticoagulant K2EDTA (Table 40e and Table 40f).
The PK parameters of TAK-935 and its metabolites (M-I) were determined from the concentration-time profiles for all evaluable subjects. Actual sampling times, rather than scheduled sampling times, were used in all computations involving sampling times. The following PK parameters were calculated from plasma concentrations of TAK-935 and its metabolites (M-I), unless otherwise specified: […]

[1] = 100 mg, Day 7, TAK-935 100 mg BID, mean
[2] = 200 mg, Day 14, TAK-935 200 mg BID, mean
[3] = 300 mg, Day 21, TAK-935 300 mg BID, mean

Compound: O=C(c1cccnc1-c1ccncc1)N1CCC(O)(Cc2ccccc2)CC1 [soticlestat]
- Cmax (100 mg, Day 7 (100 mg BID), Part 2, Geo Mean, read-out: Cmax): 146 ng/mL
- Tmax (100 mg, Day 7 (100 mg BID), Part 2, Mean, read-out: Tmax): 50 min
- AUC (100 mg, Day 7 (100 mg BID), Part 2, Median, read-out: AUC1ast): 226 ng·h/mL
- AUC (100 mg, Day 7 (100 mg BID), Part 2, Median, read-out: AUCtau): 226 ng·h/mL
- Cmax (100 mg, Day 7 (100 mg BID), Part 2, Median, read-out: Cmax): 148 ng/mL
- Vd/F (100 mg, Day 7 (100 mg BID), Part 2, Median): 2600 L
- AUC(0-t) [1]: 224 ng·h/mL
- AUC (100 mg, Day 7, TAK-935 100 mg BID, mean, read-out: AUCτ (AUC during a dosing interval)): 224 ng·h/mL
- Cmax (100 mg, Day 7, TAK-935 100 mg BID, mean, read-out: Cmax): 204 ng/mL
- Vd/F [1]: 2940 L
- half-life [1]: 218 min
- Tmax (100 mg, Day 7, TAK-935 100 mg BID, median, read-out: tmax): 30 min
- Tmax (100 mg, TAK-935, Day 1, 100 mg BID, read-out: Median Tmax): 45 min
- AUC (100 mg, TAK-935, Day 1, first dose 100 mg BID, read-out: Mean AUCτ): 232 ng·h/mL
- Cmax (100 mg, TAK-935, Day 1, first dose 100 mg BID, read-out: mean Cmax): 255 ng/mL
- AUC (100 mg, TAK-935, Day 7, 100 mg BID, read-out: Mean AUCτ): 224 ng·h/mL
- Cmax (100 mg, TAK-935, Day 7, 100 mg BID, read-out: mean Cmax): 204 ng/mL
- AUC (200 mg, Day 14 (200 mg BID), Part 2, Geo Mean, read-out: AUC1ast): 788 ng·h/mL
- AUC (200 mg, Day 14 (200 mg BID), Part 2, Geo Mean, read-out: AUCtau): 789 ng·h/mL
- Cmax (200 mg, Day 14 (200 mg BID), Part 2, Geo Mean, read-out: Cmax): 836 ng/mL
- Tmax (200 mg, Day 14 (200 mg BID), Part 2, Mean, read-out: Tmax): 40 min
- AUC (200 mg, Day 14 (200 mg BID), Part 2, Median, read-out: AUC1ast): 794 ng·h/mL
- AUC (200 mg, Day 14 (200 mg BID), Part 2, Median, read-out: AUCtau): 794 ng·h/mL
- Cmax (200 mg, Day 14 (200 mg BID), Part 2, Median, read-out: Cmax): 1030 ng/mL
- Vd/F (200 mg, Day 14 (200 mg BID), Part 2, Median): 1030 L
- AUC(0-t) [2]: 860 ng·h/mL
- AUC (200 mg, Day 14, TAK-935 200 mg BID, mean, read-out: AUCτ (AUC during a dosing interval)): 861 ng·h/mL
- Cmax (200 mg, Day 14, TAK-935 200 mg BID, mean, read-out: Cmax): 980 ng/mL
- Vd/F [2]: 1090 L
- half-life [2]: 157 min
- Tmax (200 mg, Day 14, TAK-935 200 mg BID, median, read-out: tmax): 30 min
- AUC (200 mg, TAK-935, Day 14, 200 mg BID, read-out: Mean AUCτ): 861 ng·h/mL
- Cmax (200 mg, TAK-935, Day 14, 200 mg BID, read-out: mean Cmax): 980 ng/mL
- AUC (300 mg, Day 21 (300 mg BID), Part 2, Geo Mean, read-out: AUC1ast): 1960 ng·h/mL
- AUC (300 mg, Day 21 (300 mg BID), Part 2, Geo Mean, read-out: AUCtau): 1960 ng·h/mL
- Cmax (300 mg, Day 21 (300 mg BID), Part 2, Geo Mean, read-out: Cmax): 1940 ng/mL
- Tmax (300 mg, Day 21 (300 mg BID), Part 2, Mean, read-out: Tmax): 32.5 min
- AUC (300 mg, Day 21 (300 mg BID), Part 2, Median, read-out: AUC1ast): 2040 ng·h/mL
- AUC (300 mg, Day 21 (300 mg BID), Part 2, Median, read-out: AUCtau): 2040 ng·h/mL
- Cmax (300 mg, Day 21 (300 mg BID), Part 2, Median, read-out: Cmax): 1600 ng/mL
- Vd/F (300 mg, Day 21 (300 mg BID), Part 2, Median): 620 L
- AUC(0-t) [3]: 2020 ng·h/mL
- AUC (300 mg, Day 21, TAK-935 300 mg BID, mean, read-out: AUCτ (AUC during a dosing interval)): 2020 ng·h/mL
- Cmax (300 mg, Day 21, TAK-935 300 mg BID, mean, read-out: Cmax): 2060 ng/mL
- Vd/F [3]: 640 L
- half-life [3]: 176 min
- Tmax (300 mg, Day 21, TAK-935 300 mg BID, median, read-out: tmax): 30 min
- AUC (300 mg, TAK-935, Day 21, 300 mg BID, read-out: Mean AUCτ): 2020 ng·h/mL
- Cmax (300 mg, TAK-935, Day 21, 300 mg BID, read-out: mean Cmax): 2060 ng/mL
- Tmax (TAK-935, Day 7, Day 14 and Day 21, read-out: Median Tmax): 30 min
